Tests used:
C57BL/6 mice [1] = test: Three-day study on GLP-1 and gallbladder filling (bile weight); format: in vivo, mouse; conditions: 100 mg/kg oral BID 3 days, 30 min after last dose
Description: C57BL/6 mice, Tgr5 KO mice, or their wild-type littermate controls were orally dosed with vehicle or compounds twice per day for 3 days, with overnight fasting performed on the evening of day 2. On the morning of day 3, animals were dosed orally with compounds and then euthanized by CO2 asphyxiation at 30 minutes after the fifth dose. Plasma was collected for analysis of GLP-1 (X-36) amide as mentioned above, followed immediately by incision into the abdominal cavity to remove and weigh bile from the gallbladder.
On the third day, compound was dosed in the morning followed 30 minutes later by measurement of bile filling (A) by use of a needle and syringe and GLP-1 (x-36) amide (B) by cardiac puncture.

gallbladder = conditions: cited from earlier work
C57BL/6 mice [2] = test: Acute in vivo incretin secretion assay (plasma GLP-1 and PYY AUC); conditions: 100 mg/kg oral, fasted mice, 3-hour time course
Description: Plasma was separated by centrifugation, aliquoted, and analyzed for GLP-1 (X-36) amide (Mesoscale Discovery) and total PYY (Millipore). Resulting raw data was used to generate area under the curve analyses (AUCs).

[3] = Plasma compound levels after oral dosing (LC-MS/MS); conditions: C57BL/6, mouse, 100 mg/kg
C57BL/6 mice [4] = test: Oral glucose tolerance test, glucose only; conditions: 100 mg/kg oral, glucose 3 g/kg 15 min after compound
Description: For measurement of glucose only, overnight-fasted C57BL/6 mice in a normal light cycle were orally dosed with vehicle or compound, followed by an oral bolus of 3 g/kg glucose at 15 minutes post compound. At 0, 20, 40, 60, and 120 minutes post glucose dose, blood glucose was assessed via glucometers. Resulting raw data was used to generate AUCs. […] At 0, 15, 30, 60, and 120 minutes post glucose dose, blood glucose was assessed via glucometers. Resulting raw data was used to generate AUCs.

C57BL/6 mice [5] = test: Oral glucose tolerance test with hormone measurement; format: in vivo, mouse; conditions: 10 mg/kg oral, glucose 3 g/kg, 1 hour
Description: For measurement of glucose only, overnight-fasted C57BL/6 mice in a normal light cycle were orally dosed with vehicle or compound, followed by an oral bolus of 3 g/kg glucose at 15 minutes post compound. At 0, 20, 40, 60, and 120 minutes post glucose dose, blood glucose was assessed via glucometers. Resulting raw data was used to generate AUCs. For measurement of hormones and glucose, overnight-fasted C57BL/6 mice acclimated for two weeks to a reverse light cycle were orally dosed with vehicle or compound, followed by an oral bolus of 3 g/kg glucose at 15 minutes post compound. At 0, 2, 5, 10, 20, 40, and 60 minutes post glucose dose, blood glucose was assessed via glucometers, followed immediately by collection of plasma for active GLP-1 (Mesoscale Discovery), insulin (Mesoscale Discovery), and total PYY. Glucose tolerance tests in diet-induced obese (DIO) C57BL/6 mice were performed in overnight-fasted animals dosed either acutely or after 2-week administration with vehicle or compound 18 at 60 mg/kg, followed 30 minutes post compound by an oral bolus of 2 g/kg glucose. At 0, 15, 30, 60, and 120 minutes post glucose dose, blood glucose was assessed via glucometers. Resulting raw data was used to generate AUCs.
To evaluate glucose, insulin, GLP-1, and PYY levels throughout the OGTT, each time-point consisted of a separate group of mice that were used to record glucose by use of a glucometer followed by terminal bleeds for measurement of active GLP-1, total PYY, and insulin. AUCs were then calculated for the entire hour of the OGTT. […] Changes in insulin AUCs were not increased with treatment of either sitagliptin or compound 18, likely due to the lower glucose levels reducing the drive for glucose-stimulated insulin secretion (Fig 5D).
Fig 5 Compound 18 increases GLP-1 and PYY and lowers the glucose and insulin excursions as compared to sitagliptin in an OGTT in C57BL/6 mice. […] Plasma was analyzed for active GLP-1 (A), total PYY (B), and insulin (D), while blood glucose was measured by glucometers (C).

| Structure (SMILES) | bile weight (gallbladder filling) (C57BL/6 mice [1]) | plasma GLP-1 levels (C57BL/6 mice [1]) | gallbladder filling with bile (gallbladder) | GLP-1 AUC increase over vehicle (C57BL/6 mice [2]) [fold over vehicle] | PYY AUC increase over vehicle (C57BL/6 mice [2]) [fold over vehicle] | AUC(0-t) [3] [µM·h] | Cmax [3] [µM] | Tmax [3] [h] | effect on glucose tolerance in OGTT (C57BL/6 mice [4]) | insulin AUC during OGTT (C57BL/6 mice [5]) |
| --- | --- | --- | --- | --- | --- | --- | --- | --- | --- | --- |
| CC[C@H]1[C@@H](O)[C@@H]2[C@H](C[C@H](O)[C@]3(C)[C@@H]([C@H](C)C[C@H](C)C(=O)O)CC[C@@H]23)[C@@]2(C)CC[C@@H](O)C[C@@H]12 [INT-777, 6α-ethyl-23(S)-methylcholic acid, reference compound] | significant increase in bile weight | no detectable increase in GLP-1 | stimulated gallbladder filling with bile | 2.8 | 1.6 | 264 | 136 | 1.5 | no detectable improvement of glucose tolerance |  |
| N[C@@H](CC(=O)N1CCn2c(nnc2C(F)(F)F)C1)Cc1cc(F)c(F)cc1F [sitagliptin, reference compound] |  |  |  |  |  |  |  |  |  | not increased |

Source: article PMC4551797 (PLoS ONE, 2015)
